Structures can show the parent of a compound that is named as a salt.
system: HBV rcDNA in HepDE19 cells; assay: HepDE19 assay with bDNA quantitation of HBV rcDNA; format: cell-based, hepatitis B virus (HBV); conditions: HepDE19 cells, inhibition of rcDNA formation, 7 day incubation, top concentration 25 μM; read-out: DE-19 bDNA EC50

SMILES | EC50 [µM]
O=C(NC1CSc2c(C(=O)Nc3ccc(F)c(F)c3)ccc(F)c21)OCc1ccccn1 (stereo not drawn) [Compound 63, O-Pyridin-2-ylmethyl, N-(7-((3,4-difluorophenyl)carbamoyl)-4-fluoro-2,3-dihydrobenzo[b]thiophen-3-yl) carbamate] | > 25
COC(=O)NC1(C)CCc2c(C(=O)Nc3ccc(F)c(Cl)c3)ccc(F)c21 (stereo not drawn) [Compound 214, O-methyl, N-(4-((3-chloro-4-fluorophenyl)carbamoyl)-7-fluoro-1-methyl-2,3-dihydro-1H-inden-1-yl) carbamate] | 2.6

same assay, conditions: Hepatitis B virus, HepDE19, 168 h, HepDE19 cells, inhibition of rcDNA formation, 7 day incubation, top concentration 25 μM; read-out: DE-19 bDNA EC50

SMILES | EC50 [µM]
CC(C)NS(=O)(=O)N[C@H]1CCc2c(C(=O)Nc3ccc(F)c(Cl)c3)ccc(F)c21 [Compound 237, (S)-N-(3-chloro-4-fluorophenyl)-7-fluoro-1-((N-isopropylsulfamoyl)amino)-2,3-dihydro-1H-indene-4-carboxamide] | 0.58
CCC(=O)N[C@H]1CCc2c(C(=O)Nc3ccc(F)c(Cl)c3)ccc(F)c21 [Compound 158, (S)-N-(3-chloro-4-fluorophenyl)-7-fluoro-1-propionamido-2,3-dihydro-1H-indene-4-carboxamide] | 0.81
O=C(Nc1ccc(F)c(Cl)c1)c1ccc(F)c2c1CC[C@@H]2NS(=O)(=O)C1CCCC1 [Compound 239, (S)—N-(3-Chloro-4-fluorophenyl)-1-(cyclopentanesulfonamido)-7-fluoro-2,3-dihydro-1H-indene-4-carboxamide] | 0.24
CN1C(=O)CC[C@H]1COC(=O)N[C@H]1CCc2c(C(=O)Nc3ccc(F)c(Cl)c3)ccc(F)c21 [Compound 39] | 0.6
COCC(=O)N[C@H]1CCc2c(C(=O)Nc3ccc(F)c(Cl)c3)ccc(F)c21 [Compound 75, (S)—N-(3-Chloro-4-fluorophenyl)-7-fluoro-1-(2-methoxyacetamido)-2,3-dihydro-1H-indene-4-carboxamide] | 1.4
CC(C)S(=O)(=O)N[C@H]1CCc2c(C(=O)Nc3ccc(F)c(Cl)c3)ccc(F)c21 [Compound 238, (S)—N-(3-Chloro-4-fluorophenyl)-7-fluoro-1-((1-methylethyl)sulfonamido)-2,3-dihydro-1H-indene-4-carboxamide] | 0.19
Cc1cc(NC(=O)c2ccc(F)c3c2CC[C@@H]3NC(=O)OCc2ccccn2)ccc1F [Compound 40, O-Pyridin-2-ylmethyl, N—(S)-(7-fluoro-4-((4-fluoro-3-methylphenyl)carbamoyl)-2,3-dihydro-1H-inden-1-yl) carbamate] | 0.62
Cn1nccc1C(=O)N[C@H]1CCc2c(C(=O)Nc3ccc(F)c(Cl)c3)ccc(F)c21 [Compound 100, (S)—N-(4-((3-Chloro-4-fluorophenyl)carbamoyl)-7-fluoro-2,3-dihydro-1H-inden-1-yl)-1-methyl-1H-pyrazole-5-carboxamide] | 0.74
COC(=O)O[C@H]1CCc2c(C(=O)Nc3ccc(F)c(Cl)c3)ccc(F)c21 [Compound 123, (S)-4-(3-Chloro-4-fluorophenylcarbamoyl)-7-fluoro-2,3-dihydro-1H-inden-1-yl Methyl Carbonate] | 0.76
O=C(Nc1ccc(F)c(Cl)c1)c1ccc(F)c2c1CC[C@@H]2Nc1ncc(O)cn1 [Compound 186, (S)-N-(3-chloro-4-fluorophenyl)-7-fluoro-1-((5-hydroxypyrimidin-2-yl)amino)-2,3-dihydro-1H-indene-4-carboxamide] | 1.6
O=C(Nc1ccc(F)c(Cl)c1)c1ccc(F)c2c1CC[C@@H]2NS(=O)(=O)CC1CC1 [Compound 221, (S)—N-(3-Chloro-4-fluorophenyl)-1-((cyclopropylmethyl)sulfonamido)-7-fluoro-2,3-dihydro-1H-indene-4-carboxamide] | 0.21
CC(C)CS(=O)(=O)N[C@H]1CCc2c(C(=O)Nc3ccc(F)c(Cl)c3)ccc(F)c21 [Compound 234, (S)—N-(3-Chloro-4-fluorophenyl)-7-fluoro-1-((2-methylpropyl)sulfonamido)-2,3-dihydro-1H-indene-4-carboxamide] | 0.34
O=C(Nc1ccc(F)c(Cl)c1)c1cccc2c1CC[C@@H]2NS(=O)(=O)C1CC1 [Compound 216, (S)—N-(3-chloro-4-fluorophenyl)-1-(cyclopropanesulfonamido)-2,3-dihydro-1H-indene-4-carboxamide] | 0.04
COC(=O)N[C@H]1CCc2c(C(=O)Nc3ccc(F)c(F)c3)cccc21 [Compound 1, O-methyl, N—(S)-(4-((3,4-difluorophenyl)carbamoyl)-2,3-dihydro-1H-inden-1-yl) carbamate] | 0.64
CS(=O)(=O)N[C@H]1CCc2c(C(=O)Nc3ccc(F)c(Cl)c3)ccc(F)c21 [Compound 117, (S)—N-(3-chloro-4-fluorophenyl)-7-fluoro-1-(methylsulfonamido)-2,3-dihydro-1H-indene-4-carboxamide] | 0.52

same assay, conditions: Hepatitis B virus, HepDE19, 168 h, read-out: DE-19 bDNA EC50 (μM), HepDE19 cells, inhibition of rcDNA formation, 7 day incubation, top concentration 25 μM

SMILES | EC50 [µM]
O=C(N[C@H]1CCc2c(C(=O)Nc3ccc(F)c(Cl)c3)ccc(F)c21)OCCn1ccnc1 [Compound 96, O-2-(1H-Imidazol-1-yl)ethyl, N—(S)-(4-((3-chloro-4-fluorophenyl)carbamoyl)-7-fluoro-2,3-dihydro-1H-inden-1-yl) carbamate Hydrochloride] | 0.3
O=C(Nc1ccncc1)N[C@H]1CCc2c(C(=O)Nc3ccc(F)c(Cl)c3)ccc(F)c21 [Compound 145, (S)—N-(3-Chloro-4-fluorophenyl)-7-fluoro-1-(3-(pyridin-4-yl)ureido)-2,3-dihydro-1H-indene-4-carboxamide] | 0.93
COC(=O)N[C@@H]1c2cccc(C(=O)Nc3ccc(F)c(Cl)c3)c2C[C@H]1OC [Compound 130, O-Methyl, N-((1R,2R)-4-((3-chloro-4-fluorophenyl)carbamoyl)-2-methoxy-2,3-dihydro-1H-inden-1-yl)carbamate] | 0.1
CC(=O)N1CCC(COC(=O)N[C@H]2CCc3c(C(=O)Nc4ccc(F)c(Cl)c4)ccc(F)c32)CC1 [Compound 174, O-(1-Acetylpiperidin-4-yl)methyl, N—(S)-(4-((3-chloro-4-fluorophenyl)carbamoyl)-7-fluoro-2,3-dihydro-1H-inden-1-yl) carbamate] | 0.87
Cc1cc(C)nc(N[C@H]2CCc3c(C(=O)Nc4ccc(F)c(Cl)c4)ccc(F)c32)n1 [Compound 164, (S)—N-(3-Chloro-4-fluorophenyl)-1-((4,6-dimethylpyrimidin-2-yl)amino)-7-fluoro-2,3-dihydro-1H-indene-4-carboxamide] | 1
COC(=O)NC1CSc2c(C(=O)Nc3ccc(F)c(Cl)c3)cccc21 (single isomer, unassigned) [Compound 38, O-Methyl, N-(7-((3-chloro-4-fluorophenyl)carbamoyl)-2,3-dihydrobenzo[b]thiophen-3-yl) carbamate] | > 25
O=C(N[C@H]1CCc2c(C(=O)Nc3ccc(F)c(Cl)c3)ccc(F)c21)OC1CCOCC1 [Compound 113, O-Tetrahydro-2H-pyran-4-yl, N—(S)-(4-((3-chloro-4-fluorophenyl)carbamoyl)-7-fluoro-2,3-dihydro-1H-inden-1-yl) carbamate] | 0.31
NC(=O)c1ccnc(N[C@H]2CCc3c(C(=O)Nc4ccc(F)c(Cl)c4)ccc(F)c32)n1 [Compound 104, (S)-2-((4-((3-Chloro-4-fluorophenyl)carbamoyl)-7-fluoro-2,3-dihydro-1H-inden-1-yl)amino)pyrimidine-4-carboxamide] | 0.16
CC(=O)N1CC(F)(F)CC1COC(=O)N[C@H]1CCc2c(C(=O)Nc3ccc(F)c(Cl)c3)ccc(F)c21 (stereo partly drawn) [Compound 61, O-(1-Acetyl-4,4-difluoropyrrolidin-2-yl)methyl, N—((S)-4-((3-chloro-4-fluorophenyl)carbamoyl)-7-fluoro-2,3-dihydro-1H-inden-1-yl) carbamate] | 0.4
Cc1cc(NC(=O)c2cccc3c2CC[C@@H]3NC(=O)OC[C@H]2CCC(=O)N2)ccc1F [Compound 24, O—((R)-5-Oxopyrrolidin-2-yl)methyl, N—((S)-4-((4-fluoro-3-methylphenyl)carbamoyl)-2,3-dihydro-1H-inden-1-yl) carbamate] | 1.5
CNC(=O)N[C@H]1CCc2c(C(=O)Nc3ccc(F)c(C)c3)ccc(F)c21 [Compound 12, (S)-7-Fluoro-N-(4-fluoro-3-methylphenyl)-1-(3-methylureido)-2,3-dihydro-1H-indene-4-carboxamide] | 0.38
O=C(Nc1ccc(F)c(Cl)c1)c1ccc(F)c2c1CC[C@@H]2Nc1ccccn1 [Compound 97, (S)—N-(3-Chloro-4-fluorophenyl)-7-fluoro-1-(pyridin-2-ylamino)-2,3-dihydro-1H-indene-4-carboxamide Hydrochloride] | 0.22
CNC(=O)N[C@@H]1c2cccc(C(=O)Nc3ccc(F)c(Cl)c3)c2C[C@H]1OC [Compound 165, (1R,2R)—N-(3-Chloro-4-fluorophenyl)-2-methoxy-1-(3-methylureido)-2,3-dihydro-1H-indene-4-carboxamide] | 0.33
O=C(N[C@H]1CCc2c(C(=O)Nc3ccc(F)c(Cl)c3)ccc(F)c21)OCCc1ccccn1 [Compound 83, O-2-(Pyridin-2-yl)ethyl, N—(S)-(4-((3-chloro-4-fluorophenyl)carbamoyl)-7-fluoro-2,3-dihydro-1H-inden-1-yl) carbamate Hydrochloride] | 0.18
O=C(N[C@H]1CCc2c(C(=O)Nc3ccc(F)c(Cl)c3)ccc(F)c21)OCCOc1ccccc1 [Compound 99, O-2-Phenoxyethyl, N—(S)-(4-((3-chloro-4-fluorophenyl)carbamoyl)-7-fluoro-2,3-dihydro-1H-inden-1-yl) carbamate] | 1.22
O=C(N[C@H]1CCc2c(C(=O)Nc3ccc(F)c(Cl)c3)ccc(F)c21)OC[C@@H]1COCCN1 [Compound 180, O—((S)-Morpholin-3-yl)methyl, N—((S)-4-((3-chloro-4-fluorophenyl)carbamoyl)-7-fluoro-2,3-dihydro-1H-inden-1-yl) carbamate Hydrochloride] | 0.2
